The text below walks through data of patent US7144551B2, “Mold remediation system and method” (DH Technologies, L.L.P., priority 2002, dated 2006).

Where two headings read alike, the source gives them in different places.

For one data set, the system named is mold colonies. Nature of the data set: Cidal action of controlled hypochlorous acid vapor on mold colonies (general statements). Format: cell-based.
The subject of the next data set is mold and mold stains. The data set can be described thus: Mold kill and mold stain removal study: vapor from acidified 6.0% NaOCl diluted in water, in a 1400 cc container. It counts as cell-based. To be noted: 5 mL 6.0% NaOCl + 50 mL water, in 1400 cc. The method, then: First, the recommended concentration of HOCl for sanitization of surfaces according to the prior art is calculated. Referring to the label of Ultra Chlorox® brand of sodium hypochlorite and noticing that a recommended concentration of NaOCl for mold and mildew stain removal is 3⁄4 cup Ultra Chlorox® plus one gallon of water. Ultra Chlorox® contains 6.00% NaOCl per the label. […] For the mold remediation studies, 5 mL of 6.0% NaOCl was mixed with 50 mL of water, acidified and was placed in a container with a volume of 1400 cc. • 5 mL of 6.0% NaOCl=0.30 g NaOCl • Assuming all of the NaOCl is converted to HOCl: • 0.30 g NaOCl=(0.30 g NaOCl)(52.5 g HOCl)/(74.5 g NaOCl)=0.21 g HOCl This quantity of HOCl is diluted to 1400 cc. Therefore, the maximum concentration of HOCl gas in the container studied is: • 0.21 g HOCl/1400 cc=15×10^-5 g HOCl/cc […]

Data set [1] deals with germs on surfaces. The data set can be described thus: Label-recommended hypochlorite concentration for sanitization of surfaces (Ultra Clorox label).
For a further data set, the system named is mold and mildew stain. Nature of the data set: Label-recommended hypochlorite concentration for mold and mildew stain removal (Ultra Chlorox label). The method, then:
First, the recommended concentration of HOCl for sanitization of surfaces according to the prior art is calculated. Referring to the label of Ultra Chlorox® brand of sodium hypochlorite and noticing that a recommended concentration of NaOCl for mold and mildew stain removal is 3⁄4 cup Ultra Chlorox® plus one gallon of water. Ultra Chlorox® contains 6.00% NaOCl per the label. […] For the mold remediation studies, 5 mL of 6.0% NaOCl was mixed with 50 mL of water, acidified and was placed in a container with a volume of 1400 cc. • 5 mL of 6.0% NaOCl=0.30 g NaOCl • Assuming all of the NaOCl is converted to HOCl: • 0.30 g NaOCl=(0.30 g NaOCl)(52.5 g HOCl)/(74.5 g NaOCl)=0.21 g HOCl This quantity of HOCl is diluted to 1400 cc. Therefore, the maximum concentration of HOCl gas in the container studied is: • 0.21 g HOCl/1400 cc=15×10^-5 g HOCl/cc

For data set [2] the following is noted: cited from earlier work.
Another data set has as its system mold. Nature of the data set: Mold remediation study: vapor from acidified 600 ppm NaOCl in a closed 1400 cc container. To be noted: 10 ml acidified 600 ppm NaOCl in 1400 cc; all NaOCl assumed converted to HOCl. Format: cell-based. As to the method: For purposes of the calculation which now follows, it is assumed that essentially all of the NaOCl is converted to HOCl when acidified, which is a valid assumption given the equilibrium of the reaction. For mold remediation studies, 10 ml of acidified 600 ppm NaOCl was placed in a container with a volume of 1400 cc. • 10 ml of 600 ppm NaOCl=0.00600 g NaOCl/10 ml • 0.00600 g NaOCl=(0.00600 g NaOCl)(52.5 g HOCl)/(74.5 g NaOCl)=0.00423 g HOCl This quantity is diluted to 1400 cc. Therefore, the maximum concentration of HOCl gas in the container studied is: • 0.00423 g/1400 cc=3.02×10^−6 g HOCl/cc. […] Thus, we have discovered that by converting the NaOCl to HOCl and using it in the form of a gas the concentration needed for mold cidal activity is at least about 47 times less than is recommended for sanitation in the liquid form of hypochlorite bleach! We next investigated the removal of mold stain from surfaces.

Data set [3] concerns germs on surfaces. To be noted: cited from earlier work.

For `OCl` [hypochlorous acid], the “time to completely eradicate even the most refractory of mold colonies” value with mold colonies (hypochlorous acid vapors generated and controlled as described) is not above 24 h. Moreover, in the data set on mold colonies (in air), the “hypochlorous acid concentration in the air that must be exceeded for effective cidal action on mold-contaminated materials” value is “exceed 3×10^−7 grams/cubic centimeter”. In addition, the “maximum concentration of HOCl gas in the container found to kill mold and remove stains” value with mold and mold stains is listed as 15×10^−5 g HOCl/cc. For the same compound, the “equivalent concentration of HOCl necessary to sanitize per manufacturer recommendation” value in the data set on germs on surfaces [1] (calculated from 200 ppm NaOCl, liquid) is listed as 1.41×10^−4 g HOCL/cc. In addition, the “Conc. of HOCl equivalent to the recommended stain removal solution” value in the data set on mold and mildew stain (all NaOCl assumed converted to HOCl) amounted to 0.0019 g HOCl/cc. Further, the “% as HOCl” value in data set [2] (pH 5.0) is recorded as 100%; in data set [2] (pH 6.0), 96%; in data set [2] (pH 7.0) it was 72%; in data set [2] (pH 7.2) it was 66%; in data set [2] (pH 7.5), 48%; in data set [2] (pH 7.8) it was 33%. The “% as HOCl” value in data set [2] (pH 8.0) is 22%. Further, the “maximum concentration of HOCl gas in the container found to kill mold” value in the data set on mold is on record as 3.02×10^−6 g HOCl/cc.
With `OCl` [sodium hypochlorite, reference compound], the “recommended sanitizing concentration expressed by volume” value in the data set with germs on surfaces [1] (corresponds to 200 ppm aqueous solution) is 200×10^−6 grams/cc. In addition, the “NaOCl conc. recommended by Ultra Chlorox for mold and mildew stain removal” value in the data set with mold and mildew stain (¾ cup Ultra Chlorox (6.00% NaOCl) plus one gallon of water) turned out to be 0.0027 g/cc. In the data set on germs on surfaces [3], the “recommended concentration for killing germs on surfaces / sanitation” value is 200 ppm.
In the case of hypochlorite ion [OCl—], the “% as OCl—” value in data set [2] (pH 5.0) is reported as 0%; in data set [2] (pH 6.0), 4%; in data set [2] (pH 7.0), 28%; in data set [2] (pH 7.2) it was 34%; in data set [2] (pH 7.5), 52%; in data set [2] (pH 7.8) it was 67%. In addition, the “% as OCl—” value in data set [2] (pH 8.0) is recorded as 78%.
